Row | melting point [°C] | Structure (SMILES)
1 | 238 to 240 | CC(=O)Nc1ccc(C)cc1Oc1c([N+](=O)[O-])cc(C(=O)O)cc1S(N)(=O)=O
2 | 112 to 115 | COc1ccc2c3c(c(=O)oc2c1)CN(Cc1cccc(Cl)c1)CC3
3 | 206 to 208 | CN1CC[C@@H](c2c(O)cc(O)c3c(=O)cc(-c4ccccc4F)oc23)[C@@H]1CO
4 | 355 to 358 | CC(C(=O)O)c1ccc(Nc2nc3ccccc3[nH]2)cc1 (configuration not stated)
5 | > 260 | Cc1nc2c(s1)C(=O)c1ccccc1C2=O
6 | 176 | ON=C(c1ccccc1)c1cccc2nc(N[C@@H]3CCc4ccccc43)ccc12
7 | 126 to 129 | COC(=O)CC1Sc2ccc(N)cc2CN(CCc2ccccc2)C1=O (configuration not stated)
8 | 248 | CC(=O)N(CCP(=O)(O)O)Cc1cc([N+](=O)[O-])cc2[nH]c(=O)c(=O)[nH]c12
9 | 68 to 71 | CC(C)(C)OC(=O)N1Cc2ccccc2CN1
10 | 91 to 92 | CCOC(=O)c1cc2cc(Oc3ccc(S(C)(=O)=O)cc3)cc(OCc3nccn3C)c2[nH]1
11 | 128 to 129 | CC(=O)NCC1CN(c2ccc(N3CCN(C(=O)COC(=O)CN4CCN(C)CC4)CC3)c(F)c2)C(=O)O1 (configuration not stated)
12 | > 300 | Oc1nc2ccc3nonc3c2nc1O
13 | 67.5 to 68 | Nc1ccc(-c2ccc(N)cc2OC(F)(F)F)c(OC(F)(F)F)c1
14 | 156 to 158 | Cc1cccc(C2CC(=O)c3ccccc3O2)c1 (configuration not stated)
15 | 96 to 98 | COC1=C(OC)C(=O)C(CCCCCCCCCC(=O)N[C@H](Cc2ccccc2)C(=O)O)=C(C)C1=O
16 | 90 to 91 | c1ccc2c(c1)C(=NOCCN1CCOCC1)c1ccccc1C1CC21 (configuration not stated)
17 | 63 to 65 | CCCCCCCCCCCCCCCCOC(=O)c1cc(C(=O)OCCCCCCCCCCCCCCCC)cc(S(=O)(=O)O)c1
18 | 80 to 81 | C/C(=C\c1ccc(CO)cc1)c1ccc2c(c1)C(C)(C)CCO2
19 | 83 to 85 | COc1ccc(C2C(C(=O)/C=C/c3ccc(O)c(OC)c3)C(=O)CC(c3ccc(O)c(OC)c3)C2[N+](=O)[O-])cc1 (configuration not stated)
20 | 135 to 137 | CC(=O)Nc1nc(CS(=O)(=O)c2ccc(N)cc2)cs1
21 | 267 to 268 | CN1CC(=O)Nc2ccncc2C1=O
22 | 92 to 96 | CNC1=NS(=O)(=O)N=C1NCCSCc1ccc(CN(C)C)o1
23 | 50.5 to 51.3 | Cc1ccc(C(C#N)=C2CCCCC2)cc1

Row | melting point [°C] | Structure (SMILES)
24 | 87 | COc1cccc(C=CCN2CCc3nc(N)sc3CC2)c1OC
25 | 67.4 | NC(=O)C1CN(CCCCN(c2ccc(F)cc2)c2ccc(F)cc2)CCN1 (configuration not stated)
26 | 123 to 125 | COc1ccc(N2CCN(c3c(C)c(C)c4c(c3C)C(O)(c3ccccc3)C(C)(C)O4)CC2)cc1 (configuration not stated)
27 | 164 to 165 | CSc1nc(N)nc(SC)c1-c1ccc(Cl)cc1Cl
28 | 202 to 204 | COc1ccc2c(c1)NC(=O)CC(C(=O)O)C2 (configuration not stated)
29 | 220 to 222 | O=C(NCCCCCCNC(=O)c1ccc(O)cc1)c1ccc(O)cc1
30 | 184 | O=c1[nH]c(=O)n(C2CC(F)C(CO)O2)cc1CO (configuration not stated)
31 | 67 to 68 | C=CC(=O)N(CC)c1cn(-c2cccnc2)nc1Cl
32 | 214 to 216 | CCCCc1oc2ccccc2c1-c1ncc(-c2ccc3cc(OCC(=O)O)ccc3c2)o1
33 | 198 to 199 | COc1ccc(N=c2scc(-c3ccc(Cl)c(S(=O)(=O)N(C)C)c3)n2C)cc1
34 | 150 to 151 | CN1CCN(c2ccc3c(c2)NC(=O)C(C)(c2ccc([N+](=O)[O-])cc2)C3=O)CC1 (configuration not stated)
35 | 121 to 123 | COc1cc(OC)cc(S(=O)(=O)c2ccc(N)c(C)c2)c1
36 | 152 to 153 | N#Cc1ccccc1-c1ccc(CBr)c(Br)c1
37 | 115 to 118 | Nc1noc(-c2ccc(C(F)(F)F)cc2)c1Cl
38 | 158 to 161 | CC(=O)Nc1cc2c(s1)CCCN(CCCCN1CCN(c3ncccn3)CC1)C2=O
39 | 94 to 96.5 | CCOC(=O)C(CC#Cc1ccccc1)(NC(C)=O)C(=O)OCC
40 | 256 to 257 | O=C(O)c1cc(=O)c2c([nH]1)-c1ccccc1SC2
41 | 223 to 224 | COc1ccc(Cl)nc1C(N)=O
42 | > 300 | O=c1[nH]c(=O)c2cn(C3CCCC3)nc2[nH]1
43 | 210 | Nc1ccc2ccc(-c3ccc(Cl)c(Cl)c3)nc2n1
44 | 118 to 120 | O=C(Nc1ccc(Oc2ccnc(NC3CC3)n2)c2ccccc12)c1cc(F)cc(N2CCOCC2)c1
45 | 211 to 212 | CCOC(=O)Cc1ccc(Nc2ncc3c(n2)N(C)C(=O)N(c2c(Cl)cccc2Cl)C3)cc1
46 | > 300 | CC(=O)Nc1nc2c(s1)-c1c(c(-c3c[nH]cn3)nn1-c1ccccc1C(F)(F)F)CC2

Row | melting point [°C] | Structure (SMILES)
47 | 270 to 275 | O=c1[nH]c(-c2ccc(C(F)(F)F)cc2C(F)(F)F)nn1-c1cc(Cl)ccc1O
48 | 116 to 118 | CNC(=O)C(=NOC)c1cccc(Cl)c1COc1cc(C(F)(F)F)nc(OC(C)C)n1
49 | 101 to 103 | CC(C)NC(=O)c1ccccc1
50 | 162 to 165 | CC(C)[C@H](NC(=O)OCc1csc(N(C)C)n1)C(=O)N[C@@H](Cc1ccccc1)C[C@H](O)[C@H](Cc1ccccc1)NC(=O)OCc1cncs1
51 | 126 to 128 | Nc1ccccc1C(=O)NCCc1cccnc1
52 | 185 | C=C(CC(=O)Nc1cc(Cl)cc(Cl)c1)C(=O)O
53 | 170 to 178 | O=S(=O)(Nc1ccc(OCc2ccc3ccccc3n2)cc1)c1c(F)c(F)c(F)c(F)c1F
54 | 118 to 120 | O=C1CCC(N2Cc3c(OCC4CCCOC4)cccc3C2=O)C(=O)N1 (configuration not stated)
55 | 242 to 243 | CS(=O)(=O)c1ccc2c3c(cccc13)C(=O)N2
56 | 119 | Clc1ccc(Oc2ccc(Cl)nn2)cc1
57 | 294 | O=c1c2ccccc2n(-c2cccc([N+](=O)[O-])c2)c2nc3ccccc3n12
58 | 259 to 262 | Cc1cc(-n2ccnc2)cc2ccc(=O)[nH]c12
59 | 210 to 212 | Cc1c(OCCBr)ccc2c(=O)cc(N3CCOCC3)oc12
60 | 32 to 33 | O=C(F)OC12CC3CC(CC(C3)C1)C2
61 | 164 to 165 | N#Cc1ccc(C(=O)N2CCN(c3ccncc3)CC2)cc1
62 | 90 | CCCc1c(OCCOc2cccc(C(=O)NCCCCc3cccnc3)c2)ccc(C(C)=O)c1O
63 | 86.5 to 88 | COc1ccc(C2(COC(C)=O)CCC(=O)CC2)cc1
64 | 234 to 236 | CC(C)(C)c1ccc(C(=O)n2c3cc(O)c(O)cc3c3ccc(O)c(O)c32)cc1
65 | 168 | O=c1oc(=O)n(Cc2ccccc2)c2ncccc12
66 | 164 to 165 | N#CCCn1ccc(NC(=S)NCC(F)(F)F)n1
67 | 129 to 131 | COc1cc(C(=O)Nc2ccccc2C(c2ccc(O)cc2)c2ccc(O)cc2)ccc1[N+](=O)[O-]
68 | 155 to 158 | O=C(O)COc1cccc2c1CCc1sc(SC(c3cccc(F)c3)c3cccc(F)c3)nc1-2
69 | 189 to 191 | CCn1c(Cc2ccc(C)cc2)nnc1[C@@H](C)NS(=O)(=O)c1ccc(Cl)c(Cl)c1

Row | melting point [°C] | Structure (SMILES)
70 | 146 to 147 | Cc1sc2c(c1C(=O)CCN1CCN(c3nsc4ccccc34)CC1)NC(=O)CCC2
71 | 138 to 139 | CCOC(=O)N1CCNC1=Nc1ccc(Cl)cc1Cl
72 | 181 to 184 | CCOC(=O)c1[nH]c(CC)nc1C(C)(C)O
73 | 192 to 193 | FC(F)c1nc2ccccc2n1-c1nc(NCc2ccccn2)nc(N2CCOCC2)n1
74 | 127 to 130 | Fc1ccc(-n2c(CCl)csc2=S)c(F)c1F
75 | 249 to 250 | COc1cc(OC)c2c(=O)[nH]c(-c3ccc(O)c(CCO)c3)nc2c1
76 | 178 to 180 | Cn1nc(-c2nc(OCC(N)=O)c(Cl)cc2F)c(Cl)c1OC(F)F
77 | 148 to 150 | Cc1c(-c2c[nH]c3c(-c4ccccc4)cccc23)nc2ccc(F)cc2c1C(=O)O
78 | 110 to 111 | CCC1(CCSC(C)=O)C(=O)N2CCCC(C(=O)O)N2C1=O (configuration not stated)
79 | 182 | CC1(C)CC(NC(=O)c2ccccc2)CC(C)(C)N1CC#N
80 | 191 to 193 | O=c1ccc(-c2ccc(OCCCCl)cc2)n[nH]1
81 | 176 to 178 | ClC(Cl)(Cl)c1nnc(C=Cc2ccc(C=Cc3ccccc3)cc2)o1
82 | 159 to 160 | CN(CCCCCC(=O)O)c1cnc(-c2ccccc2)c(-c2ccccc2)n1
83 | 102 to 104 | COc1cc(F)ccc1OCCN1C(=O)c2ccccc2C1=O
84 | 99 to 102 | CC(C)C(=O)N1C2=NC(C)(C)N(C)C(=O)N2c2ccccc21
85 | 196 | Cc1nn2c(C(F)(F)F)cc(-c3ccc(F)c(Cl)c3)nc2c1C#N
86 | 165 to 166 | CC(N)c1ccc(NS(C)(=O)=O)c(Sc2ccc(F)cc2F)c1 (configuration not stated)
87 | 69 to 71 | CC(c1ccccc1)C(Br)C(=O)c1ccccc1 (configuration not stated)
88 | 196 to 197 | CCC(C)NC(=O)Nc1cc(-c2c(-c3ccc(F)c(C)c3)nc3cccnn23)ccn1 (configuration not stated)
89 | > 400 | O=C(O)c1ccc(-c2ccc(C(=O)O)cc2-c2nc3ccccc3[nH]2)c(-c2nc3ccccc3[nH]2)c1
90 | 98 to 100 | OC1Cc2ccccc2C1O (configuration not stated)

Row | Structure (SMILES) | melting point [°C]
91 | N#CC=Cc1ccc(CBr)cc1 | 105 to 107
92 | COc1ccc2c(c1)c(C(=O)CCC(=O)O)c(C)n2Cc1ccc(Br)cc1 | 215 to 217
93 | NP(N)(=O)NC(=O)c1cccc([N+](=O)[O-])c1 | 168 to 172
94 | CN1CC(CN2CC(=O)NC2=O)C=C2c3cccc4[nH]cc(c34)CC21 (configuration not stated) | 282 to 284
95 | COc1ccc(C=CC(=O)O)cc1-c1cc2c(cc1OCCCO)C(C)(C)CCC2(C)C | 198 to 200
96 | Cc1c(F)c(N2CCNCC2)c(Cl)c2c1c(=O)c(C(=O)O)cn2C1CC1 | 234 to 235
97 | CN(C)CC(=O)NCc1nc(C(=O)N(C)C)nn1-c1ccc(Cl)cc1C(=O)c1ccccc1Cl | 122 to 124
98 | N#Cc1cc(F)ccc1N1CCNCC1 | 83 to 83.5
99 | NC(=O)c1ccc(N2CCNCC2)cc1 | 240 to 243
100 | O=C1CSC(N2CCN=C(c3ccccc3Cl)c3cc(Cl)ccc32)=N1 | 217 to 218
101 | O=C1CN2CCCC1C2 (configuration not stated) | 83 to 87
102 | O=C(O)C[S@](=O)C(c1ccccc1)c1ccccc1 | 118 to 120
